Measured values as given in ChEMBL document CHEMBL5113467, “Design, synthesis and evaluation of 2-(2-oxoethyl)pyrimidine-5-carboxamide derivatives as acetylcholinesterase inhibitors” (Bioorg Med Chem Lett, 2022).
pIC50: −log10 of the molar value. Active and inactive are the calls of the source. No cut-off for these calls is given here.

What was measured:
Cholinesterase = Cholinesterase (Homo sapiens, UniProt P06276); assay: Inhibition of BuChE (unknown origin) using butyrylthiocholine iodide as substrate by DTNB reagent based Ellman's method
Cholinesterase, sequence (P06276 whole entry): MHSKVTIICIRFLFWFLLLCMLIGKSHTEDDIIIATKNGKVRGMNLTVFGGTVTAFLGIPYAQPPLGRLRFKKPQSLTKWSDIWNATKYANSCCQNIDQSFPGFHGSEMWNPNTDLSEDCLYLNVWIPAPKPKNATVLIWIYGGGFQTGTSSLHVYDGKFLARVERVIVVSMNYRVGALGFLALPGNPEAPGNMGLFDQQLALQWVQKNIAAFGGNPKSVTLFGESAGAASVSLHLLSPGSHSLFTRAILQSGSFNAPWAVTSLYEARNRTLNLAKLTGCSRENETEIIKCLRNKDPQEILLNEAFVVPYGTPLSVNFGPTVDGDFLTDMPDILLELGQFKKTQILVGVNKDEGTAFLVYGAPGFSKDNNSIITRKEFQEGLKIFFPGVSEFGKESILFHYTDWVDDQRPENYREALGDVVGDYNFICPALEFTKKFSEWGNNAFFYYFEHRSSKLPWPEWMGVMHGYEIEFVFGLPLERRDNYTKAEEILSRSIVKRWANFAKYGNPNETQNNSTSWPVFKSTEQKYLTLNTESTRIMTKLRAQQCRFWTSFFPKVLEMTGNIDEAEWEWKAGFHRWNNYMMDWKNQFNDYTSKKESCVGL

Acetylcholinesterase [1] = target: T1, Acetylcholinesterase (Homo sapiens, UniProt P22303); assay: Inhibition of AChE (unknown origin) using acetylthiocholine iodide as substrate by DTNB reagent based Ellman's method
T1 sequence (P22303 whole entry): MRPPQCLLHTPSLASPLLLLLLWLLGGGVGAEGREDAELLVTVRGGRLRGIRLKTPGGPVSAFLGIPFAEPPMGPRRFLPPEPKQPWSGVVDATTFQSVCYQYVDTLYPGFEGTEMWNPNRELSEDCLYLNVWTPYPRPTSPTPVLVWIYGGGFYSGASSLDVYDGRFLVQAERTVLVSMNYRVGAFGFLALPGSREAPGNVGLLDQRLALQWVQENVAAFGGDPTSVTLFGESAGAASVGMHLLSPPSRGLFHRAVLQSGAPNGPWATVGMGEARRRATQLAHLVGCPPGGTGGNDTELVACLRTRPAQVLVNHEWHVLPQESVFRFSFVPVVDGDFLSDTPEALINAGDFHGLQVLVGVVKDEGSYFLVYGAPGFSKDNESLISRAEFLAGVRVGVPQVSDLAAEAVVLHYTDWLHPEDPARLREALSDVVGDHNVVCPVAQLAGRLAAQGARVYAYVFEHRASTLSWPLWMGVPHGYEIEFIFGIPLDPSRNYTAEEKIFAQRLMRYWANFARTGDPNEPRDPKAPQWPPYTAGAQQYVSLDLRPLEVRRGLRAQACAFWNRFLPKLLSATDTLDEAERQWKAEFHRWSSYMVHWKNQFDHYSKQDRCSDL

Acetylcholinesterase [2] = target: T1, Acetylcholinesterase; assay: Mixed type inhibition of AChE (unknown origin) using acetylthiocholine iodide as substrate by Lineweaver-Burk double reciprocal plot analysis
[3] = target: 5-hydroxytryptamine receptor 4 (Homo sapiens) (UniProt Q13639); assay: Displacement of [3H]GR113808 from human 5-HT4 receptor expressed in Chem-1 cell membrane incubated for 60 mins by radiometric scintillation counting analysis relative to control; assay type: cell membranes; settings: filed as agonist
5-hydroxytryptamine receptor 4 (Homo sapiens), sequence (Q13639 whole entry): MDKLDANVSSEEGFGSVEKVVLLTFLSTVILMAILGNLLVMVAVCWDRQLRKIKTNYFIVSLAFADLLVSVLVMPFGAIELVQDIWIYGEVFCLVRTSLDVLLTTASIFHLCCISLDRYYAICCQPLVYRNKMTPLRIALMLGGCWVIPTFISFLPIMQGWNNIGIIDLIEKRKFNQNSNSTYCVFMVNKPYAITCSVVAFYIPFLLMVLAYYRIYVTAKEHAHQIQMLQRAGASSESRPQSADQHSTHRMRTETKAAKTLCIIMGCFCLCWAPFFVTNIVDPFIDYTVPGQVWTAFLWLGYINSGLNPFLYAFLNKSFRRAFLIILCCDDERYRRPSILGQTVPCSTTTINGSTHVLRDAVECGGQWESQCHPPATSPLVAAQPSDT

COc1ccc(C(=O)Cc2ncc(C(=O)NCc3ccc(OC)c(OC)c3)cn2)cc1
pIC50 (Cholinesterase): 4.51
pIC50 (Acetylcholinesterase [1]): 5.00

COc1ccc(C(=O)Cc2ncc(C(=O)N(C)CCCOc3cccc(OC)c3)cn2)cc1
pIC50 (Cholinesterase): 5.08
pIC50 (Acetylcholinesterase [1]): 4.35

CN(CCCOc1ccc([N+](=O)[O-])cc1)C(=O)c1cnc(CC(=O)c2ccccc2)nc1
pIC50 (Cholinesterase): 5.22
pIC50 (Acetylcholinesterase [1]): 5.00

COc1ccc(OCCCN(C)C(=O)c2cnc(CC(=O)c3ccc(OC)cc3)nc2)cc1
pIC50 (Cholinesterase): 5.04
pIC50 (Acetylcholinesterase [1]): 5.01

COc1ccc(C(=O)Cc2ncc(C(=O)N(C)CCCOc3ccc(OC)c(OC)c3)cn2)cc1
pIC50 (Cholinesterase): 5.08
pIC50 (Acetylcholinesterase [1]): 4.53

COc1ccc(C(=O)Cc2ncc(C(=O)N(C)CCCOc3ccc([N+](=O)[O-])cc3)cn2)cc1
pIC50 (Cholinesterase): 4.88
pIC50 (Acetylcholinesterase [1]): 5.34

CN(CCCOc1ccc([N+](=O)[O-])cc1)C(=O)c1cnc(CC(=O)c2ccc3c(c2)OCO3)nc1
pIC50 (Cholinesterase): 4.32
pIC50 (Acetylcholinesterase [1]): 6.00

COc1cccc(C(=O)Cc2ncc(C(=O)N(C)CCCOc3ccc([N+](=O)[O-])cc3)cn2)c1
pIC50 (Cholinesterase): 5.59
pIC50 (Acetylcholinesterase [1]): 5.40

COc1ccc(C(=O)Cc2ncc(C(=O)N(C)CCCOc3ccc([N+](=O)[O-])cc3)cn2)cc1OC
pIC50 (Cholinesterase): 5.24
pIC50 (Acetylcholinesterase [1]): 5.42

COc1ccc(C(=O)Cc2ncc(C(=O)N(C)CCCOc3ccc(C(F)(F)F)cc3)cn2)cc1
pIC50 (Cholinesterase): 5.20
pIC50 (Acetylcholinesterase [1]): 4.53

CCOc1ccc(C(=O)Cc2ncc(C(=O)N(C)CCCOc3ccc([N+](=O)[O-])cc3)cn2)cc1
pIC50 (Cholinesterase): 5.18
pIC50 (Acetylcholinesterase [1]): 5.19

COc1ccc(C(=O)Cc2ncc(C(=O)N(C)CCCOc3c(F)c(F)c(F)c(F)c3F)cn2)cc1
pIC50 (Cholinesterase): 4.54
pIC50 (Acetylcholinesterase [1]): 5.29

COc1ccc(C(=O)Cc2ncc(C(=O)N3CCN(Cc4ccccc4)CC3)cn2)cc1
pIC50 (Cholinesterase): 5.24
pIC50 (Acetylcholinesterase [1]): 4.76

CN(CCCOc1ccc([N+](=O)[O-])cc1)C(=O)c1cnc(CC(=O)c2cccs2)nc1
pIC50 (Cholinesterase): 5.00
pIC50 (Acetylcholinesterase [1]): 6.06
inhibition (Acetylcholinesterase [2]): Active

COc1ccc(C(=O)Cc2ncc(C(=O)Nc3ccncc3)cn2)cc1
pIC50 (Cholinesterase): 4.50
pIC50 (Acetylcholinesterase [1]): 4.75

C/C=C1\[C@H]2C=C(C)C[C@]1(N)c1ccc(=O)[nH]c1C2 [HUPERZINE A]
pIC50 (Cholinesterase): < 2.00

COc1cc(N)c(Cl)cc1C(=O)CCC1CCN(CC2CCCCC2)CC1
inhibition [3]: 48.3%

COc1ccc(C(=O)Cc2ncc(C(=O)NCc3cccs3)cn2)cc1
pIC50 (Cholinesterase): 5.46
pIC50 (Acetylcholinesterase [1]): 4.51

COc1ccc(C(=O)Cc2ncc(C(=O)NC3CCN(Cc4ccccc4)CC3)cn2)cc1
pIC50 (Cholinesterase): 5.43
pIC50 (Acetylcholinesterase [1]): 4.55
